Laboratory results: patent US20120264810A1, “COMPOSITIONS AND METHODS FOR ENHANCING CELLULAR UPTAKE AND INTRACELLULAR DELIVERY OF LIPID PARTICLES” (The University of British Columbia, priority 2009, published 2012)
Where a name gives a salt, the structure may show the parent alone.

Experiments:
Raw264.7 cells [1] = assay: Drug screen and titration: siRNACy3-LN uptake and punctate distribution (Cellomics ArrayScan); assay type: cell-based, mouse; details: for Normalized Punctate Distribution / Normalized siRNA Uptake: 10 μg/mL siRNACy3 in DLinDMA LN, ~10 μM drug, 24 h; for Normalized Punctate Distribution: normalized to absence of drug; for Normalized siRNA Uptake: total Cy3 intensity normalized to absence of drug; for punctate / cytosolic distribution of siRNACy3 in titration study: drug 0-30 μM, 10 μg/mL siRNACy3-LN; for increase in siRNACy3 accumulation: drug at 30 μM, 10 μg/mL siRNACy3 in DLinDMA LNs, normalized to no drug
Experimental: (§1) Cells were fixed with 3% paraformaldehyde in PBS in the presence of Hoescht for 15 minutes. Cells were rinsed and stored in PBS supplemented with calcium chloride and magnesium sulfate. Plates were scanned and analyzed with the Cellomics ArrayScan VTI.
as §1

[2] = system: GAPDH protein expression in Raw264.7 cells; assay: GAPDH siRNA-LN knockdown by western blotting in Raw264.7 cells; assay type: cell-based, mouse
Experimental: (§2) FIG. 5: Raw264.7 cells were treated for 24 hours with siRNACy3 encapsulated in DLinDMA LNs in the presence or absence of 5% CQ-lipid. A lipid label, SPDiO, was incorporated into the LN to monitor uptake. LN uptake was assessed by (A) SPDiO fluorescence and distribution of siRNA was assessed by (B) Cy3 fluorescence using the Cellomics ArrayScan VTI. (C) Raw264.7 cells were incubated with the same LN formulations as in (B) for 24 hours at 10 μg/mL siRNACy3. siRNACy3 distribution was examined by confocal microscopy. (D) GAPDH siRNA was formulated into LN particles comprising of 40% DLinDMA with 0% CQ-lipid or 40% DLinDMA with 5% CQ-lipid. Raw264.7 cells were treated with 5, 10 and 20 μg/mL of siRNA for 48 and 72 hours. GAPDH protein expression was assessed by western blotting against anti-GAPDH and anti-actin. (E) LNCaP cells were treated accordingly as in (D).
(§3) Perhaps most importantly, we wanted to determine whether the enhanced cytosolic distribution of siRNACy3 observed with the CQ-lipid correlated to enhanced gene knockdown. Glyceraldehyde 3-phosphate dehydrogenase (GAPDH) is an ubiquitously expressed cytosolic protein and therefore knockdown efficiency of encapsulated siRNA can be tested in different cell lines (Barber et al., 2005). Raw264.7 cells were treated with LN of varying concentration of GAPDH siRNA for 24, 48 and 72 hours. Total protein was isolated and analyzed for GAPDH levels by immunoblotting. […] The function of GAPDH siRNA was specific since actin expression was unaltered (FIG. 5D). To confirm the function of the CQ-lipid in the LN-siRNA-mediated gene knockdown, GAPDH silencing was also assessed in LNCaP cells (FIG. 5E).

Raw264.7 cells [3] = assay: Chloroquine / CQ-lipid LN formulations: LN uptake (SPDiO) and siRNA distribution (Cellomics, confocal); assay type: cell-based, mouse
Experimental: All lipid stocks (DSPC, PEG-s-DMG, Cholesterol, SP-DiOC18, chloroquine lipid and DLinDMA) were dissolved and maintained in 100% ethanol. Lipids were mixed together at a molar % ratio of 40:10:39.8:10:0.2 DLinDMA:PEG-s-DMG:cholesterol:DSPC:SP-DiO18 or 40:10:35.8:9:0.2 with 5% CQ-lipid or 35:10:39.8:0.2 with 5% CQ-lipid. Lipid mixture was added drop-wise to the formulation buffer (50 mM citrate, pH 4.0) to form multi lamellar vesicles (MLV). Large unilamellar vesicles (LUVs) were formed upon extrusion of MLVs through two stacked 80 nm Nuclepore polycarbonate filters using an extruder from Northern Lipids (Vancouver, BC, Canada) at ˜300 psi. In order to encapsulate siRNA, siRNA was added drop-wise to preformed vesicles and incubated at 35° C. for 30 minutes with constant mixing. Removal of ethanol and neutralization of formulation buffer were performed by dialysis in PBS for 16 hours. Distribution of size was determined by dynamic light scattering using a NICOMP 370 particle sizer (Nicomp Particle sizing Inc., Santa Barbara, Calif.). siRNA encapsulation efficiency was determined by removal of free siRNA using VivaPureD MiniH columns (Sartorius Stedim Biotech) from samples collected before and after dialysis. The encapsuted siRNA from eluants were then extracted and quantified at 260 nm. siRNA to lipid ratio was determined by measurement of cholesterol content in vesicles by using the Cholesterol E enzymatic assay from Wako Chemicals USA (Richmond, Va.).
Raw264.7 cells grown on glass coverslips were treated with 10 μg/mL Cy5-siRNA-LN/SPDiO or siRNACy3-LN/SPDiO constituted of +/−5% CQ-lipid in the presence of 35 or 40% DLinDMA. The overall uptake of LNs was monitored with SPDiO and the distribution of siRNA was monitored using either Cy5- or Cy3-labelled siRNA. Cells were fixed with 3% paraformaldehyde in PBS in the presence of Hoescht for nuclear staining for 15 minutes. Glass coverslips were mounted onto slides and analyzed by confocal microscopy (Olympus FV1000). Fluorochromes were excited at 488 nm (DiO), 594 nm (Alexa-594), 550 nm (Cy3) and at 633 nm (Cy5) and images were collected sequentially with 60× oil immersion objective lens.
Raw264.7 cells were treated with LNs consisting of 40% DLinDMA in the absence or presence of 10 or 30 μM chloroquine or formulation consisting of 35% DLinDMA with 5% CQ-lipid (˜14.7 μM chloroquine). Total lipid uptake was estimated by cellular SPDiO fluorescence. When cells were treated for 16 hours, the uptake of SPDiO was dependent on the concentration of chloroquine as well as concentration of LNs (FIG. 4A). When Raw264.7 cells were treated only with DLinDMA LNs, the intensity of SPDiO increased in respect to concentration. […] The Cy5-siRNA distribution at 16 hours was relatively more “punctate” than that at 24 hours (FIGS. 4B and C).

[4] = system: GAPDH protein expression in LNCaP cells; assay: GAPDH siRNA-LN knockdown in LNCaP cells; assay type: cell-based, human
Experimental: as §2, §3

Na+/K+-ATPase = details: Paula et al., 2005; cited from earlier work
HeLa cells = assay: LNP uptake in HeLa cells (SPDiO fluorescence, Cellomics / confocal); assay type: cell-based, human; details: for LNP uptake with cardiac glycosides: 0.05, 0.15 and 1.5 μM, 24 h
Experimental: All cell lines were seeded at 5000 to 20,000 cells/well of 96-well ViewPlate (PerkinElmer, Shelton, Conn., USA) in 100 μl of medium and were allowed to grow overnight. Fresh medium containing 5 or 10 μg/ml of siRNA encapsulated in LNP was added the next day. Small molecules were either added manually or pinned from 1000-fold stocks in DMSO using a pinning robot equipped with 0.4 mm pins (BioRobotics, Cambridge, UK). Cells were incubated for 24 h. Cells were then washed once in PBSCM (1×PBS containing […] CaCl2), fixed in 3% paraformaldehyde containing Hoescht's stain for 15 min, washed once in PBSCM and stored in 100 μl of PBSCM.
Plates were imaged using a Cellomics Arrayscan VTI HCS Reader (Thermo Scientific, Pittsburgh, Pa., USA). Images were acquired using a 20× PlanFluor objective and a XF93 filter set. Object identification and image analysis were performed using the Cellomics Compartmental Analysis algorithm. Cellular SPDiO and siRNA-Cy3 fluorescence intensities were measured for a minimum of 400 cells and the average pixel intensity was examined. For confocal microscopy, cells grown on glass coverslips were washed once in 1×PBS, fixed in 3% paraformaldehyde containing Hoechst's stain for 15 min, washed again and mounted on slides. Images were captured on an Olympus FV1000 (Olympus, Center Valley, Pa., USA) laser scanning microscope and cellular SPDiO fluorescence intensity was analyzed using ImageJ (NIH, http://rsb.info.nih.gov/ij/).

[5] = 30 μM free chloroquine, or 35% DLinDMA LNs with 5% CQ-lipid, 16 hours

CC(=O)c1ccc(S(=O)(=O)NC(=O)NC2CCCCC2)cc1 [Acetohexamide]
Normalized Punctate Distribution (Raw264.7 cells [1]): 1.48 | Normalized siRNA Uptake (Raw264.7 cells [1]): 1.32

Nc1nc(O)c2[nH]nnc2n1 [Azaguanine-8]
Normalized Punctate Distribution (Raw264.7 cells [1]): 0.07 | Normalized siRNA Uptake (Raw264.7 cells [1]): 0.54

CCCCC/C=C\C/C=C\CCCCCCCCOCC(CNCCCCNc1ccnc2cc(Cl)ccc12)OCCCCCCCC/C=C\C/C=C\CCCCC (stereo not shown) [CQ-lipid]
GAPDH protein expression ([2]; 20 μg/mL GAPDH siRNA in LN containing 5% CQ-lipid, 48 hours): decreased GAPDH protein expression | gene knockdown occurred earlier than with LN without CQ-lipid ([2]; 20 μg/ml siRNA in LN containing the CQ-lipid): 24 h | GAPDH knockdown ([2]; 24 hours): no knockdown | knockdown of GAPDH ([2]; 72 hours): more pronounced | Cy5-siRNA punctate levels (Raw264.7 cells [3]; [5]): significant reduction | intracellular DiO accumulation (LN uptake) (Raw264.7 cells [3]; 5% CQ-lipid:35% DLinDMA LN, highest dose, versus 0% CQ-lipid:40% DLinDMA): substantially reduced intracellular DiO accumulation | siRNACy3 punctate signal (Raw264.7 cells [3]; 40% DLinDMA LNs with 5% CQ-lipid, 24 hours): lowered punctate signal | uptake of LN particles (SPDiO fluorescence) (Raw264.7 cells [3]; 40% DLinDMA LNs with versus without 5% CQ-lipid, 24 hours): comparable intracellular SPDiO fluorescence | knockdown of GAPDH ([4]; LN containing 5% CQ-lipid, 72 hours): More pronounced knockdown effect | knockdown of GAPDH ([4]; all concentrations of LN containing 5% CQ-lipid, 48 hours): Enhanced knockdown of GAPDH

CCN(CC)CCCC(C)Nc1ccnc2cc(Cl)ccc12 (stereo not shown) [Chloroquine]
siRNA showing punctate distribution (Raw264.7 cells [3]; 10 μM chloroquine, 24 hours (without chloroquine maximum 25-30%)): ~10% | uptake of LNs (SPDiO fluorescence) (Raw264.7 cells [3]; 10 μM free chloroquine, 40% DLinDMA LNs, 16 hours): no significant difference | Cy5-siRNA punctate levels (Raw264.7 cells [3]; 10 μM free chloroquine, 16 hours): largely indifferent | Cy5-siRNA punctate levels (Raw264.7 cells [3]; [5]): significant reduction | Normalized Punctate Distribution (Raw264.7 cells [1]): 0.10 | Normalized siRNA Uptake (Raw264.7 cells [1]): 0.34 | punctate / cytosolic distribution of siRNACy3 in titration study (Raw264.7 cells [1]): significant loss of punctate distribution of siRNACy3 at 10 μM

C[N+]1(C)CCC(=C(c2ccccc2)c2ccccc2)CC1 [Diphemanil methylsulfate]
Normalized Punctate Distribution (Raw264.7 cells [1]): 0.34 | Normalized siRNA Uptake (Raw264.7 cells [1]): 0.70 | punctate / cytosolic distribution of siRNACy3 in titration study (Raw264.7 cells [1]): only showed enhanced cytosolic distribution of siRNACy3 at 30 μM

Cn1c(=O)c2c(ncn2CC(O)CO)n(C)c1=O (stereo not shown) [Diprophylline]
Normalized Punctate Distribution (Raw264.7 cells [1]): 1.55 | Normalized siRNA Uptake (Raw264.7 cells [1]): 1.38 | increase in siRNACy3 accumulation (Raw264.7 cells [1]): Approximately 2 fold

C[C@H]1O[C@@H](O[C@H]2CC[C@]3(C=O)[C@H]4CC[C@]5(C)[C@@H](C6=CC(=O)OC6)CC[C@]5(O)[C@@H]4CC[C@]3(O)C2)C[C@H](O)[C@@H]1O [Helveticoside]
relative binding affinity among the 9 cardiac glycosides (Na+/K+-ATPase): weakest binder | LNP uptake with cardiac glycosides (HeLa cells): enhanced LNP uptake at a higher concentration | presence of LNs in cells by confocal microscopy (HeLa cells; treated for 24 hrs): substantial amount of LNs

CC(=O)OCC(=O)[C@@]1(O)CC[C@H]2[C@@H]3CCC4=CC(=O)C=C[C@]4(C)[C@@]3(F)[C@@H](O)C[C@@]21C [Isoflupredone acetate]
Normalized Punctate Distribution (Raw264.7 cells [1]): 0.07 | Normalized siRNA Uptake (Raw264.7 cells [1]): 0.50

Cc1cc(NC(=O)C2=C(O)c3ccccc3S(=O)(=O)N2C)no1 [Isoxicam]
Normalized Punctate Distribution (Raw264.7 cells [1]): 1.53 | Normalized siRNA Uptake (Raw264.7 cells [1]): 1.42 | increase in siRNACy3 accumulation (Raw264.7 cells [1]): ~3 fold

CC(COc1ccccc1)NC(C)C(O)c1ccc(O)cc1 (stereo not shown) [Isoxsuprine HCl, isoxsuprine hydrochloride]
Normalized Punctate Distribution (Raw264.7 cells [1]): 0.33 | Normalized siRNA Uptake (Raw264.7 cells [1]): 0.51

N[C@@H](Cc1ccc(O)c(O)c1)C(=O)O [Levodopa]
Normalized Punctate Distribution (Raw264.7 cells [1]): 1.43 | Normalized siRNA Uptake (Raw264.7 cells [1]): 1.28

c1ccc2c(CC3=NCCN3)cccc2c1 [Naphazoline HCl, naphazoline hydrochloride]
Normalized Punctate Distribution (Raw264.7 cells [1]): 1.49 | Normalized siRNA Uptake (Raw264.7 cells [1]): 1.32

C[C@@H]1O[C@@H](O[C@@H]2C=C3CCC4C(CC[C@]5(C)[C@@H](c6ccc(=O)oc6)CC[C@]45O)[C@@]3(C)CC2)[C@H](O)[C@H](O)[C@H]1O (stereo partly shown) [Proscillaridin A]
relative binding affinity among the 9 cardiac glycosides (Na+/K+-ATPase): strongest binder | LNP uptake with cardiac glycosides (HeLa cells): required the least amount to cause an increased LNP uptake

COc1cc(C(=O)NCc2ccc(OCCN(C)C)cc2)cc(OC)c1OC [Trimethobenzamide HCl, Trimethobenzamide hydrochloride]
Normalized Punctate Distribution (Raw264.7 cells [1]): 0.31 | Normalized siRNA Uptake (Raw264.7 cells [1]): 0.70 | punctate / cytosolic distribution of siRNACy3 in titration study (Raw264.7 cells [1]): increased punctate distribution of siRNACy3 with increasing drug concentration
